Experimental data taken from patent US8192962B2, “Processes for detecting toxic substances” (Daikin Industries, Ltd., priority 2001, dated 2012).

Tested on: Unknown protein yeast genes
Assay: DNA chip mRNA expression in yeast, unknown protein yeast genes (Table 1)
Format: cell-based, Saccharomyces cerevisiae S288C
Protocol: Yeast (Saccharomyces cerevisiae S288C (α SUC2mal mel gap2 CUP1)) were incubated at 25° C. on YPD medium (yeast extract 1%, polypepton 2%, glucose 2%). One of toxic chemical substances was added to the cells at logarithmic growth phase, and the cells were further incubated for two hours. Cells were cultured without any chemical substance in the same condition, and were used as control. Concentrations of the chemical substances were defined to inhibit the growth of the yeast but not lead to death.
After completion of the incubation, the culture was centrifuged to collect the cells. To the cells, sodium acetate buffer (50 mM sodium acetate, 10 mM EDTA, 1% SDS) was added, and the mixture was shaken at 65° C. for five minutes, followed by returning to room temperature, and obtaining the supernatant, of which the procedures were repeated two times. To the supernatant, ½ amount of a solution of phenol/chloroform was added, and the mixture was centrifuged to give a supernatant, which was added with an equal amount of chloroform, and the mixture was centrifuged to give a supernatant. To the supernatant, an equal amount of isopropanol containing 0.3 M sodium acetate was added, and the mixture was allowed to stand at room temperature for 30 minutes, after which the mixture was centrifuged to give a sediment of the whole RNAs. Seventy % ethanol was added to the sediment, and the mixture was again centrifuged to give a sediment, which was then dried and dissolved in water. mRNA was isolated from the whole RNAs as followings. In view of the fact that a poly A chain is attached to the 3′ terminus of mRNA, a polynucleotide having a poly T structure which was immobilized on the surface of latex beads was used to trap the mRNA, and then the mRNA was washed and eluted with spine column (Oligotex-dT30<Super>mRNA Purification Kit, Takara). Reverse transcription of the mRNA was conducted with a reverse transcriptase (Super Script II Reverse Transcriptase; catalogue No. 18064-014, GibcoBRL) using fluorescence-labeled nucleotides to give cDNAs that were introduced with Cy3-dUTP or Cy5-dUTP during the reverse transcription.
The labeled cDNAs were dissolved in TE buffer (10mM Tris-HCl/1 mM EDTA, pH8.0), and the solution was dropped on the DNA chip containing the whole genes of yeast (DNA Chip Research Inc. Japan) so that the cDNAs were hybridized on the DNA chip at 65° C. for over 12 hours. The fluoresces intensity of the DNA chip was read with a scanner, and the ratio relative to the fluorescence intensity resulting from the absence of chemical substance was estimated as the following, which is shown in Tables 1 to 9: […]

`[Cl][Cd][Cl]` [(2), CdCl2] was tested, and the “The level of expressed mRNA in the presence of chemical substance/The level of expressed mRNA in the absence of chemical substance” value (yeast gene YAL053W, incubated two hours with chemical substance) was 0.9, the “The level of expressed mRNA in the presence of chemical substance/The level of expressed mRNA in the absence of chemical substance” value (yeast gene YBL048W) was 7.9 and the “The level of expressed mRNA in the presence of chemical substance/The level of expressed mRNA in the absence of chemical substance” value (yeast gene YBL107C) was 1.1. For the same compound, the “The level of expressed mRNA in the presence of chemical substance/The level of expressed mRNA in the absence of chemical substance” value (yeast gene YDL072C, incubated two hours with chemical substance) was 1.1, the “The level of expressed mRNA in the presence of chemical substance/The level of expressed mRNA in the absence of chemical substance” value (yeast gene YDL204W, incubated two hours with chemical substance) was 1.9 and the “The level of expressed mRNA in the presence of chemical substance/The level of expressed mRNA in the absence of chemical substance” value (yeast gene YDL222C, incubated two hours with chemical substance) was 1.1. For the same compound, the “The level of expressed mRNA in the presence of chemical substance/The level of expressed mRNA in the absence of chemical substance” value (yeast gene YDR330W, incubated two hours with chemical substance) was 1.5, the “The level of expressed mRNA in the presence of chemical substance/The level of expressed mRNA in the absence of chemical substance” value (yeast gene YDR411C, incubated two hours with chemical substance) was 2.8 and the “The level of expressed mRNA in the presence of chemical substance/The level of expressed mRNA in the absence of chemical substance” value (yeast gene YDR511W, incubated two hours with chemical substance) was 1.7. For the same compound, the “The level of expressed mRNA in the presence of chemical substance/The level of expressed mRNA in the absence of chemical substance” value (yeast gene YDR545W, incubated two hours with chemical substance) was 1.2, the “The level of expressed mRNA in the presence of chemical substance/The level of expressed mRNA in the absence of chemical substance” value (yeast gene YEL001C, incubated two hours with chemical substance) was 1.0 and the “The level of expressed mRNA in the presence of chemical substance/The level of expressed mRNA in the absence of chemical substance” value (yeast gene YER004W, incubated two hours with chemical substance) was 1.5. For the same compound, the “The level of expressed mRNA in the presence of chemical substance/The level of expressed mRNA in the absence of chemical substance” value (yeast gene YER035W, incubated two hours with chemical substance) was 1.6, the “The level of expressed mRNA in the presence of chemical substance/The level of expressed mRNA in the absence of chemical substance” value (yeast gene YER079W, incubated two hours with chemical substance) was 1.6 and the “The level of expressed mRNA in the presence of chemical substance/The level of expressed mRNA in the absence of chemical substance” value (yeast gene YER106W, incubated two hours with chemical substance) was 0.7. The “The level of expressed mRNA in the presence of chemical substance/The level of expressed mRNA in the absence of chemical substance” value (yeast gene YER158C, incubated two hours with chemical substance) was 0.9, the “The level of expressed mRNA in the presence of chemical substance/The level of expressed mRNA in the absence of chemical substance” value (yeast gene YER163C, incubated two hours with chemical substance) was 2.4 and the “The level of expressed mRNA in the presence of chemical substance/The level of expressed mRNA in the absence of chemical substance” value (yeast gene YER175C, incubated two hours with chemical substance) was 1.2. For the same compound, the “The level of expressed mRNA in the presence of chemical substance/The level of expressed mRNA in the absence of chemical substance” value (yeast gene YFL006W, incubated two hours with chemical substance) was 2.8, the “The level of expressed mRNA in the presence of chemical substance/The level of expressed mRNA in the absence of chemical substance” value (yeast gene YFL010C, incubated two hours with chemical substance) was 4.8 and the “The level of expressed mRNA in the presence of chemical substance/The level of expressed mRNA in the absence of chemical substance” value (yeast gene YFL024C) was 1.1. The “The level of expressed mRNA in the presence of chemical substance/The level of expressed mRNA in the absence of chemical substance” value (yeast gene YFL032W, incubated two hours with chemical substance) was 1.5, the “The level of expressed mRNA in the presence of chemical substance/The level of expressed mRNA in the absence of chemical substance” value (yeast gene YGL037C, incubated two hours with chemical substance) was 2.7 and the “The level of expressed mRNA in the presence of chemical substance/The level of expressed mRNA in the absence of chemical substance” value (yeast gene YGL047W, incubated two hours with chemical substance) was 1.9. For the same compound, the “The level of expressed mRNA in the presence of chemical substance/The level of expressed mRNA in the absence of chemical substance” value (yeast gene YGL053W, incubated two hours with chemical substance) was 1.5, the “The level of expressed mRNA in the presence of chemical substance/The level of expressed mRNA in the absence of chemical substance” value (yeast gene YGL121C) was 5.0 and the “The level of expressed mRNA in the presence of chemical substance/The level of expressed mRNA in the absence of chemical substance” value (yeast gene YGL199C, incubated two hours with chemical substance) was 1.7. For the same compound, the “The level of expressed mRNA in the presence of chemical substance/The level of expressed mRNA in the absence of chemical substance” value (yeast gene YGR101W, incubated two hours with chemical substance) was 1.3, the “The level of expressed mRNA in the presence of chemical substance/The level of expressed mRNA in the absence of chemical substance” value (yeast gene YGR110W) was 3.1 and the “The level of expressed mRNA in the presence of chemical substance/The level of expressed mRNA in the absence of chemical substance” value (yeast gene YGR130C, incubated two hours with chemical substance) was 0.7. For the same compound, the “The level of expressed mRNA in the presence of chemical substance/The level of expressed mRNA in the absence of chemical substance” value (yeast gene YGR154C, incubated two hours with chemical substance) was 2.9, the “The level of expressed mRNA in the presence of chemical substance/The level of expressed mRNA in the absence of chemical substance” value (yeast gene YGR221C, incubated two hours with chemical substance) was 2.2 and the “The level of expressed mRNA in the presence of chemical substance/The level of expressed mRNA in the absence of chemical substance” value (yeast gene YHR138C, incubated two hours with chemical substance) was 1.8. For the same compound, the “The level of expressed mRNA in the presence of chemical substance/The level of expressed mRNA in the absence of chemical substance” value (yeast gene YHR199C, incubated two hours with chemical substance) was 2.0, the “The level of expressed mRNA in the presence of chemical substance/The level of expressed mRNA in the absence of chemical substance” value (yeast gene YIL023C, incubated two hours with chemical substance) was 1.2 and the “The level of expressed mRNA in the presence of chemical substance/The level of expressed mRNA in the absence of chemical substance” value (yeast gene YIL041W, incubated two hours with chemical substance) was 1.2. The “The level of expressed mRNA in the presence of chemical substance/The level of expressed mRNA in the absence of chemical substance” value (yeast gene YIL087C, incubated two hours with chemical substance) was 1.9, the “The level of expressed mRNA in the presence of chemical substance/The level of expressed mRNA in the absence of chemical substance” value (yeast gene YJL057C, incubated two hours with chemical substance) was 1.2 and the “The level of expressed mRNA in the presence of chemical substance/The level of expressed mRNA in the absence of chemical substance” value (yeast gene YJL066C, incubated two hours with chemical substance) was 1.2. The “The level of expressed mRNA in the presence of chemical substance/The level of expressed mRNA in the absence of chemical substance” value (yeast gene YJL082W, incubated two hours with chemical substance) was 0.8, the “The level of expressed mRNA in the presence of chemical substance/The level of expressed mRNA in the absence of chemical substance” value (yeast gene YJL151C, incubated two hours with chemical substance) was 2.4 and the “The level of expressed mRNA in the presence of chemical substance/The level of expressed mRNA in the absence of chemical substance” value (yeast gene YJL152W, incubated two hours with chemical substance) was 1.5. The “The level of expressed mRNA in the presence of chemical substance/The level of expressed mRNA in the absence of chemical substance” value (yeast gene YJL161W, incubated two hours with chemical substance) was 2.2, the “The level of expressed mRNA in the presence of chemical substance/The level of expressed mRNA in the absence of chemical substance” value (yeast gene YJL171C, incubated two hours with chemical substance) was 0.7 and the “The level of expressed mRNA in the presence of chemical substance/The level of expressed mRNA in the absence of chemical substance” value (yeast gene YJR008W, incubated two hours with chemical substance) was 1.5. For the same compound, the “The level of expressed mRNA in the presence of chemical substance/The level of expressed mRNA in the absence of chemical substance” value (yeast gene YJR054W, incubated two hours with chemical substance) was 0.9, the “The level of expressed mRNA in the presence of chemical substance/The level of expressed mRNA in the absence of chemical substance” value (yeast gene YKL071W) was 3.8 and the “The level of expressed mRNA in the presence of chemical substance/The level of expressed mRNA in the absence of chemical substance” value (yeast gene YKL086W, incubated two hours with chemical substance) was 1.1. The “The level of expressed mRNA in the presence of chemical substance/The level of expressed mRNA in the absence of chemical substance” value (yeast gene YKL151C, incubated two hours with chemical substance) was 3.1 and the “The level of expressed mRNA in the presence of chemical substance/The level of expressed mRNA in the absence of chemical substance” value (yeast gene YKL153W, incubated two hours with chemical substance) was 1.4.
